In one series the test system is serum uric acid (sUA). In words: Phase 2a cross-over study in adults with gout, serum uric acid. The settings on record: for patients with sUA levels below 5 mg/dL / patients with sUA levels below 6 mg/dL: gout patients (sUA>7 mg/dL), alone or combined; for mean sUA level reached at maximum: mean baseline 8.9 mg/dL. It counts as in vivo, human.
Series [1] can be described thus: In vitro metabolism in human liver microsomes. Conditions: human liver microsomes 0.5 mg/mL, NADPH, 60 minutes, 37° C. The class given is in vitro ADME. The protocol:
After pre-warming the mixture at 37° C. for 5 minutes, the reaction was initiated by the addition of 1 mM of NADPH and incubated for 60 minutes at 37° C. in a shaking water bath. The reaction was terminated by the addition of 0.5 mL ice-cold acetonitrile. Time 0 incubation was also performed by adding acetonitrile before the addition of microsomes to the incubation mixture as a reference sample for each species. Following vortex and centrifugation at 15,000 g for 3 minutes at room temperature, resulting supernatant was concentrated under nitrogen flow at 33° C., until approximately 0.5 mL of sample remained. The extract was then transferred to a 1.5-mL centrifuge vial for centrifugation at 15,000 g for 3 minutes. Finally, aliquots of the supernatant were transferred to HPLC vials for HPLC-MS analyses.
MS Analysis: Mass spectral analyses were performed on an Agilent single quadruple mass spectrometer equipped with an Agilent 1100 HPLC system. The mass spectrometer was fitted with an electrospray ionization (ESI) source and operated in a negative scan mode between 400 and 500 amu: […]

The nature of series [2]: Solubility of test articles in HBSS assay buffer. The settings on record: all tested concentrations, highest 10 μM.
Description: Before the experiment, the medium was removed and the cells were washed twice with 100 μL of HBSS without Cl^−. Uptake experiments were carried out at 37±1° C. in 50 μL of HBSS without Cl^−, pH 7.4 containing the probe substrate (20 μM uric acid) and the test article (TA) or solvent.
The subject of series [3] is urine albumin-to-creatinine ratio (UACR). Kind of series: Phase 2a study, UACR in a subject with albuminuria. The class given is in vivo, human. Conditions: one subject with albuminuria, baseline 96 mg/g; sequential 7-day periods: Compound 1 50 mg (Day 7), Compound 1 50 mg/allopurinol 300 mg (Day 14), allopurinol 300 mg (Day 21). From the text: Urine samples were collected for assessment of uric acid excretion. Laboratory safety tests, vital signs, and electrocardiograms were collected throughout the study.

In series [4] the target is T1, human URAT1 uptake transporter (Homo sapiens, UniProt Q96S37).
T1 construct: expressed in transfected cells
T1 sequence (Q96S37 1-553): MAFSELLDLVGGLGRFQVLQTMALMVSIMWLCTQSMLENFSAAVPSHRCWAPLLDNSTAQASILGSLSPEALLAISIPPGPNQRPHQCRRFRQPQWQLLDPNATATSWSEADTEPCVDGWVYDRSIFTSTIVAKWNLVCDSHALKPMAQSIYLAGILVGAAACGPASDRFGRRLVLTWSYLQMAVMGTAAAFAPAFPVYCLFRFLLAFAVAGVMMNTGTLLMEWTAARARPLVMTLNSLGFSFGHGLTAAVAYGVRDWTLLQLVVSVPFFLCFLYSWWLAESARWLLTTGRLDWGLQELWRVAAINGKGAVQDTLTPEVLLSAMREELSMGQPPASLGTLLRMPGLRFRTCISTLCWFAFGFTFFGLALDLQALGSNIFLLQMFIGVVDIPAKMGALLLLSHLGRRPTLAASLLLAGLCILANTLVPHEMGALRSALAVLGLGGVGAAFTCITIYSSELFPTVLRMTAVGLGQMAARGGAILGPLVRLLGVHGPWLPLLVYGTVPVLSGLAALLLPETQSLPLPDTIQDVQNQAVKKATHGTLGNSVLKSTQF
In words: Inhibition of URAT1 mediated uric acid uptake in MDCKII cells stably expressing human URAT1. The class given is cell-based. Conditions: MDCKII cells expressing human URAT1; 20 μM uric acid probe; read-out: IC50, inhibition of URAT1 mediated uric acid accumulation. The protocol: Uptake experiments were performed using MDCKII cells stably expressing the human URAT1 uptake transporter. Cells were cultured at 37±1° C. in an atmosphere of 95:5 air:CO2 and were plated onto standard 96-well tissue culture plates at the cell number described in Table 1.
Radiolabeled probe substrate transport was determined by measuring an aliquot (35 μL) from each well for liquid scintillation counting.

Where [5] appears, read: once daily, Compound 1 50 mg, febuxostat 40 mg, allopurinol 300 mg.
The mark [6] stands for this setting: gout patients, once daily, Compound 1 50 mg, febuxostat 40 mg, allopurinol 300 mg, alone (Day 7/Day 21) or combined.

Structures are written as SMILES.

In the case of `Cc1nc(-c2ccc(OCC(C)C)c(C#N)c2)sc1C(=O)O` [febuxostat], in the series on serum uric acid (sUA) (setting [5]), the “patients with sUA levels below 5 mg/dL” value stood at 33% and the “patients with sUA levels below 6 mg/dL” value was 67%. In the series on serum uric acid (sUA) (setting [6]), the “mean sUA level reached at maximum” value stood at 5.5 mg/dL and the “reduction of mean sUA from baseline” value is listed as 38.9%.

Regarding `CCc1oc2ccccc2c1C(=O)c1cc(Br)c(O)c(Br)c1` [benzbromarone, reference compound], in series [1], the “Parent, % MS response (parent left)” value is recorded as 13.1%. In series [2], the “solubility in HBSS buffer” value is reported as “soluble”.

For `Oc1ncnc2[nH]ncc12` [allopurinol], in the series on serum uric acid (sUA) (setting [5]), the “patients with sUA levels below 5 mg/dL” value is given as 11% and the “patients with sUA levels below 6 mg/dL” value is reported as 56%. In addition, the “mean sUA level reached at maximum” value in the series with serum uric acid (sUA) (setting [6]) is 5.8 mg/dL. In the series on serum uric acid (sUA) (one subject with albuminuria, sequential 7-day periods: Compound 1 50 mg (Day 7), Compound 1 50 mg/allopurinol 300 mg (Day 14), allopurinol 300 mg (Day 21)), the “sUA % change from baseline” value is reported as −40%. Besides, in series [3], the UACR stood at 55 mg/g and the “UACR % change from baseline” value is recorded as −42.6%.

As a reminder, the IC50 is the midpoint of a concentration-inhibition curve. With `[2H]c1c(O)c([2H])c2oc(C(C)O)c(C(=O)c3cc(Br)c(O)c(Br)c3)c2c1[2H]` (centres unmarked) [Compound 2, (3,5-dibromo-4-hydroxyphenyl)(6-hydroxy-2-(1-hydroxyethyl)benzofuran-3-yl-4,5,7-d3)methanone], in series [4], the IC50 is 913 nM. Besides, the “solubility in HBSS buffer” value in series [2] is listed as “soluble”.
